Molecular target: calmodulin insensitive cyclic GMP phosphodiesterase
Assay: Phosphodiesterase activity: inhibition of calmodulin insensitive cyclic GMP phosphodiesterase
Type: biochemical
Conditions: procedure of European Patent Application No. 293063; read-out: IC50 (concentration of inhibitor required for 50% inhibition of enzyme activity)
Protocol: The activity of the compounds of the present invention as inhibitors of a calmodulin insensitive cyclic GMP phosphodiesterase was measured using the procedure described in European Patent Application No. 293063. […] The compounds of the present invention have the advantage that they are selective in not inhibiting cyclic AMP phosphodiesterase (type III).

**Q.** Which IC50 does the source give for CCCOc1ccccc1-c1nc2ccccc2c(=O)[nH]1 [Example 1, 2-(2-Propoxyphenyl)quinazolin-4(3H)-one] here?
**A.** 0.71 to 5.3 µM

**Q.** How did the IC50 turn out when CCCOc1ccccc1-c1nc2cc(SC)ccc2c(=O)[nH]1 [Example 2, 7-Methylthio-2-(2-propoxyphenyl)quinazolin-4(3H)-one] was run?
**A.** 0.71 to 5.3 µM

**Q.** Which IC50 does the source give for CCCOc1ccccc1-c1nc2cc([N+](=O)[O-])ccc2c(=O)[nH]1 [Example 3, 7-Nitro-2-(2-Propoxyphenyl)-4(3H)-quinazolinone] here?
**A.** 0.71 to 5.3 µM

**Q.** Which IC50 does the source give for CCCOc1ccccc1-c1nc2cc(N)ccc2c(=O)[nH]1 [Example 4, 7-Amino-2-(2-Propoxyphenyl)-4(3H)-quinazolinone] here?
**A.** 0.71 to 5.3 µM

**Q.** How did the IC50 turn out when CCCOc1ccccc1-c1nc2cc(NC)ccc2c(=O)[nH]1 [Example 5, 7-Methylamino-2-(2-Propoxyphenyl)-4(3H)-quinazolinone] was run?
**A.** 0.71 to 5.3 µM

System: U46619-induced broncho-constriction
Assay: Bronchodilatation in vivo: U46619-induced bronchoconstriction in anaesthetised guinea-pigs
Set-up: species or system guinea-pig
Conditions: 10 μmol/kg i.v. bolus; anaesthetised male Dunkin Hartley guinea-pigs; U46619 infused i.v. 2.5 nmol/min
Protocol: Male guinea-pigs of the Dunkin Hartley strain (500-600 g) were anaesthetised with Sagatal (pentobarbital sodium) (60 mg/kg). Airway resistance was measured using a modification of the classical Konzett-Rossler technique (Versuchsanordnung zu Untersuchungen an der Bronchialmuskulatur. Naunyn-Schmiedebergs Arch. Exp. Path. Pharmak., vol 195: pp 71-74, (1940)). U46619 (9,11-methanoepoxy-PGH2) was infused i.v. at a rate of 2.5 nmol/min, this produced a steady state of broncho-constriction (approximately 120% increase from basal airway resistance). The compound under test was administered by i.v. bolus injection, and the subsequent peak inhibition of bronchoconstriction recorded.
Administration of the compound of Example 1 (10 μmol/kg) reduced the U46619-induced broncho-constriction by 34%.

**Q.** Which “reduction of U46619-induced broncho-constriction (peak inhibition)” value does the source give for CCCOc1ccccc1-c1nc2ccccc2c(=O)[nH]1 [Example 1, 2-(2-Propoxyphenyl)quinazolin-4(3H)-one] here?
**A.** 34%

From patent US5147875A, “2-(substituted phenyl)-4-oxo-quinazolines” (Sanshin Kogyo Kabishiki Kaisha, priority 1988, dated 1992)
